This note sets out measurements from ChEMBL document CHEMBL1132050, “Synthesis of novel analogues of the delta opioid ligand SNC-80 using AlCl3-promoted aminolysis” (Bioorg Med Chem Lett, 1999).

A word on the IC50: it is the concentration at which inhibition is half-maximal. Higher therefore signals lower potency. One may read the ED50 as the dose at which the effect has come halfway, by size or by number of responders. Low readings indicate greater potency, high ones weaker potency.

The target in assay [1] is T1, Delta-type opioid receptor (Homo sapiens, UniProt P41143). Nature of the assay: Inhibition of binding of [3H]- -naltrindole (0.15 nM) to membranes from CHO cells expressing Opioid receptor delta 1. It counts as cell membranes.
For assay [2], the system named is Cricetinae gen. sp. Put plainly: Maximum efficacy in the Hamster vas deferens (HVD) functional assay was determined […] at a compound concentration of 10E-10 to 10E-5.
Assay [3] has as its system Mus musculus. Nature of the assay: Potency in the Mouse vas deferens (MVD) functional assay was determined […].
Assay [4] has as its system Mus musculus. Nature of the assay: Maximum efficacy in Mouse vas deferens (MVD) functional assay was determined […] at a compound concentration of 10E-10 to 10E-5.
The target of assay [5] is Mu-type opioid receptor (Rattus norvegicus, UniProt P33535). Nature of the assay: Binding affinity towards mu opioid receptor using [3H]- -DAMGO (1.5 nM) as radioligand in rat brain membranes. It counts as cell membranes.
Assay [6] concerns Mus musculus. Put plainly: Antinociceptive activity against acetic acid induced abdominal constriction model in mice by sc administration. The assay is classed as functional. To be noted: Abdomen.
The target of assay [7] is Kappa-type opioid receptor (Cavia porcellus, UniProt P41144). Put plainly: Binding affinity towards Opioid receptor kappa 1 using [3H]- U-69,593 (1.5 nM) as radioligand in guinea pig brain membranes. The assay is classed as cell membranes, Membrane.
The test system of assay [8] is Cricetinae gen. sp. Put plainly: Potency in the Hamster vas deferens (HVD) functional assay was determined […].
The target of assay [9] is T1, Delta-type opioid receptor. Nature of the assay: Compound was tested for inhibition of binding of [3H]- -naltrindole (0.15 nM) to membranes from CHO cells expressing human delta opioid receptor. It counts as cell membranes.

Some results are limits rather than exact numbers.

Kappa-type opioid receptor, sequence (P41144 whole entry): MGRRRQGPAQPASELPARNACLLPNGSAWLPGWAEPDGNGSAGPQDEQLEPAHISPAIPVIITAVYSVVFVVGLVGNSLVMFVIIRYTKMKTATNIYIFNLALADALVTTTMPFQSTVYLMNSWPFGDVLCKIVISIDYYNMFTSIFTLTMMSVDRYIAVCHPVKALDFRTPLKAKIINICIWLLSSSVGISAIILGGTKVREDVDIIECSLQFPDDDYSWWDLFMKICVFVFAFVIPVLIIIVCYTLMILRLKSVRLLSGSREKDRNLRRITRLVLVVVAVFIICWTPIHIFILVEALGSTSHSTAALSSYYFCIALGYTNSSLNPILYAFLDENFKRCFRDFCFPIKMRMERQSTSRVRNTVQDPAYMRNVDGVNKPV
T1 sequence (P41143 whole entry): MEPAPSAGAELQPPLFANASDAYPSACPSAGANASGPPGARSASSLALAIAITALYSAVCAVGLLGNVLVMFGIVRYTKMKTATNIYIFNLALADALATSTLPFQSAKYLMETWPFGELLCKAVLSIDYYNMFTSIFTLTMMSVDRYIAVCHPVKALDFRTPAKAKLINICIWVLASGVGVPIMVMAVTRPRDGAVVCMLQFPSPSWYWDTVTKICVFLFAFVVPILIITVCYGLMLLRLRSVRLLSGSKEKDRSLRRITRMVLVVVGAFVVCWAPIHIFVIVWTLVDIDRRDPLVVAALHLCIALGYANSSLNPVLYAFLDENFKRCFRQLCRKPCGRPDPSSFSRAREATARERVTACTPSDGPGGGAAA
Mu-type opioid receptor, sequence (P33535 whole entry): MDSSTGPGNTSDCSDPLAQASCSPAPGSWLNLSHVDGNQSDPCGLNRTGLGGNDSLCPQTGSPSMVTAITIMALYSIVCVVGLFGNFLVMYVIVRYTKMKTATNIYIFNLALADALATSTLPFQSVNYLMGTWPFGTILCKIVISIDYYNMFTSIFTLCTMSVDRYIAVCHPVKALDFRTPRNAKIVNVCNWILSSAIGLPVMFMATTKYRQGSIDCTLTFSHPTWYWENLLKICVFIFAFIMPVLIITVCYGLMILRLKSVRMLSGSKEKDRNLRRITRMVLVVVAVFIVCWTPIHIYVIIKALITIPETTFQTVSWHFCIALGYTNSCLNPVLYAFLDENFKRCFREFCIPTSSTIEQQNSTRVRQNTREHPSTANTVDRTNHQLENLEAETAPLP

As for `CCN(CC)C(=O)c1ccc(C(c2ccccc2)N(CC)CCN(C)C)cc1` (centres undefined), the half-maximal inhibitory concentration (IC50) in [1] worked out at 845 nM.

Consider `CCN(CC)C(=O)c1ccc(C(c2ccccc2)N2CCN(Cc3ccc4c(c3)OCO4)CC2)cc1` (centres undefined), for which the Efficacy in assay [2] was found to be 52%; in assay [4], 98%. Besides, the IC50 in assay [3] was 100 nM; in assay [5], > 10000 nM; in assay [1], 1.4 nM; in assay [7], 3900 nM; in assay [8], 2510 nM. For the same molecule, the ED50 in [6] is > 200 µmol/kg.

On to `CCN(CC)C(=O)c1ccc(C(c2ccccc2)N2CCN(CCO)CC2)cc1` (centres undefined), for which the IC50 in assay [5] is > 10000 nM; in [1] it was 5.5 nM.

`CCN(CC)C(=O)c1ccc(C(NCC(C)(C)N)c2ccccc2)cc1` (centres undefined) registered an IC50 in assay [1] of 120 nM.

With `C=CCN1CCN(C(c2ccccc2)c2ccc(C(=O)N(CC)CC)cc2)CC1` (stereo in doubt; 2), the Efficacy in assay [2] worked out at 4%; in assay [4] it was 87%. Besides, the IC50 was 631 nM in assay [3]; > 10000 nM in assay [5]; 4.1 nM in assay [1]; 1990 nM in assay [7]; > 10000 nM in assay [8]. This molecule yielded an ED50 in assay [6] of 145 µmol/kg.

For the molecule `C=CCN1CCCN(C(c2ccccc2)c2ccc(C(=O)N(CC)CC)cc2)CC1` (centres undefined), the IC50 in assay [9] was determined as 13 nM.

Turning to `CCN(CC)C(=O)c1ccc(C(c2ccccc2)N2CC(C)NC(C)C2)cc1` (centres undefined), in assay [1], the half-maximal inhibitory concentration (IC50) came to 42 nM.

Consider `CCN(CC)C(=O)c1ccc([C@H](c2ccccc2)N2C[C@@H](C)N(Cc3ccc4c(c3)OCO4)C[C@@H]2C)cc1`, for which the Efficacy amounted to 68% in [2] and 100% in [4]. Also, the IC50 in assay [3] is 39.8 nM; in assay [5], 702 nM; in assay [1] it was 0.54 nM; in assay [8], 1260 nM. For the same molecule, in [6], the 50% effective dose (ED50) is > 200 µmol/kg.

With `CCN(CC)C(=O)c1ccc(C(c2ccccc2)N2CCN(c3ccc(O)cc3)CC2)cc1` (centres undefined), the IC50 is > 10000 nM in assay [5] and 10 nM in assay [1].

In assay [1], `CCN(CC)C(=O)c1ccc(C(c2ccccc2)N2CCNC3CCCCC32)cc1` (centres undefined) showed an IC50 of 29 nM.

Regarding `C=CCN1CCN(C(c2ccccc2)c2ccc(C(=O)N(CC)CC)cc2)CC1` (stereo in doubt; 7 {1} (2)), the IC50 in assay [5] was > 50000 nM; in assay [1] it was 8 nM.

Take `CCN(CC)C(=O)c1ccc(C(c2ccccc2)N2CCN(C3CCCC3)CC2)cc1` (centres undefined): the IC50 in assay [1] was 5.8 nM.

Take `CCCN1CCN(C(c2ccccc2)c2ccc(C(=O)N(CC)CC)cc2)CC1` (centres undefined): the IC50 was > 10000 nM in [5] and 11.4 nM in assay [1].

With `CCN(CC)C(=O)c1ccc(C(c2ccccc2)N(CCN(C)C)Cc2ccccc2)cc1` (centres undefined), the Efficacy in assay [2] is on record as 13%; in assay [4] it was 7%. Further, the IC50 in assay [3] is > 10000 nM; in assay [5], > 10000 nM; in assay [1], 70 nM; in assay [7] it was 483 nM; in assay [8], > 10000 nM. In assay [6], this molecule gave a 50% effective dose (ED50) of 48.4 µmol/kg.

Take `CCN(CC)C(=O)c1ccc(C(c2ccccc2)N2CCN(CC3CCc4ccccc4C3)CC2)cc1` (centres undefined): the IC50 in assay [5] stood at 6240 nM; in [1], 1.8 nM.

With `C=CCN1CCN(C(c2ccccc2)c2ccc(C(=O)N(CC)CC)cc2)CC1` (stereo in doubt; 6 {1} (2)), the IC50 in [1] was found to be 8 nM. In other words, the single-digit nanomolar range.

Regarding `C=CCN1C[C@H](C)N([C@H](c2ccc(C(=O)N(CC)CC)cc2)c2cccc(OC)c2)C[C@H]1C` [SNC-80], the Efficacy stood at 90% in assay [2] and 100% in assay [4]. Besides, the results for the IC50 in [3], in assay [7] and in assay [8] were 7.94 nM, 4100 nM and 50.1 nM, respectively. Besides, the ED50 in assay [6] was 30.4 µmol/kg.
